Source: PubChem BioAssay (NCI)
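Five compound concentrations were applied to cells in 96-well plates for 48 hours; endpoints were derived by simple linear interpolation of the resulting dose-response curve. GI50 marks 50% less growth. TGI: concentration producing complete growth inhibition.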

Key:
Assay in all cases: NCI tumour cell line growth inhibition, 48 h
SNB-75 CNS = test system: SNB-75 CNS
MCF7 breast = test system: MCF7 breast
RPMI-8226 leukemia = test system: RPMI-8226 leukemia
DMS 273 small cell lung = test system: DMS 273 small cell lung
UACC-257 melanoma = test system: UACC-257 melanoma
NCI-H522 lung = test system: NCI-H522 lung
A498 renal = test system: A498 renal
XF 498 CNS = test system: XF 498 CNS
KM20L2 colon = test system: KM20L2 colon
CCRF-CEM leukemia = test system: CCRF-CEM leukemia
CAKI-1 renal = test system: CAKI-1 renal
SNB-78 CNS = test system: SNB-78 CNS
M14 melanoma = test system: M14 melanoma

SMILES	TGI (SNB-75 CNS) [µM]	TGI (MCF7 breast) [µM]	TGI (RPMI-8226 leukemia) [µM]	TGI (DMS 273 small cell lung) [µM]	TGI (UACC-257 melanoma) [µM]	TGI (NCI-H522 lung) [µM]	TGI (A498 renal) [µM]	TGI (XF 498 CNS) [µM]	TGI (KM20L2 colon) [µM]	TGI (CCRF-CEM leukemia) [µM]	TGI (CAKI-1 renal) [µM]	TGI (SNB-78 CNS) [µM]	TGI (M14 melanoma) [µM]	GI50 (MCF7 breast) [µM]	GI50 (RPMI-8226 leukemia) [µM]	GI50 (DMS 273 small cell lung) [µM]	GI50 (NCI-H522 lung) [µM]	GI50 (CCRF-CEM leukemia) [µM]	GI50 (SNB-78 CNS) [µM]
N#C[C@H](OC1OC(COC2OC(CO)C(O)C(O)C2O)C(O)C(O)C1O)c1ccccc1 (stereo partly drawn)	> 250	> 250	> 250	> 250	> 250	> 250	> 11.6	> 25	> 250	> 250	> 250	> 250							
O=C(Nc1nc2ccc([N+](=O)[O-])cc2s1)C(=O)C(C(=O)c1ccccc1F)C1OC(=O)c2ccccc21 (stereo not drawn)	74.5		70.6	> 100	> 100	51.8	> 100	> 100	> 100	48.7	98.5	> 100	> 100						
CCCNC(=O)C(C)C1CCC2(C)C=CC(=O)C(C)=C2C1O (stereo not drawn)	> 100	> 100	> 100	> 100	> 100	> 100	> 100	> 100	> 100	> 100	> 100								
CCCc1c(-c2ccccc2)[nH]c2ccccc2c1=O		> 100	> 100		> 100		79			> 100			> 100						
CCN(CC)c1ccc2cc(C(=O)Nc3ccc4[nH]c(C(=O)N5C[C@@H](CCl)c6c5cc(OC(=O)Nc5ccccc5)c5[nH]cc(C)c65)cc4c3)oc2c1	> 1000	> 1000	> 1000		> 1000	> 1000	0.000864		> 1000	> 1000	9.11e-05	> 1000		68.8	681	70.4	438	178	83.7
O=C1C(Cl)=C(Nc2ccc(S(=O)(=O)O)cc2)C(=O)c2ccccc21	> 100	49.1	70.1		> 100	33.5				> 100	> 100		47.1						
O=c1ssc(=Nc2ccccc2)n1-c1ccccc1	> 100	35.7	57.5		38.9		> 100			> 100			48.3						
C=CC1(NC(=O)c2ccccc2)CCC(C(C)(C)C)CC1 (stereo not drawn)	> 81.5	> 83.5	> 100	> 73.2	> 77	94	> 100	> 70.6	39.7	72.1		> 100							
Nc1ccn(C2C=C(CO)C(O)C2O)c(=O)c1 (stereo not drawn)	> 625	> 625	> 625	> 625					> 625		> 625	> 625							
COc1nc(=O)n(COC(CO)CN2C(=O)c3ccccc3C2=O)cc1Cc1cccc(OCc2ccccc2)c1 (stereo not drawn)	46.2		42.3	45.4					55.7	60.2		> 100	43.6						
CN(C)CCCN1c2ccccc2Sc2ccc3ccccc3c21		14.9	7.45		4.1	22.8	14			8.2	18.1		3.3						
OCCNCCN1CCN(CCCN2c3ccccc3Sc3ccc(C(F)(F)F)cc32)CC1		39.8	> 100		34.6	36.6	> 100			> 100	> 100		30.2						
O=C(O)c1cc2c(ncc3c(=O)n(-c4ccccc4)[nH]c32)s1			> 100	> 100		> 100		> 100	> 100	> 100	> 100		> 100						
CC(=O)Oc1cc2c(cc1OC(C)=O)OCC(c1ccccc1)C2 (stereo not drawn)	26.6	66.8	54.5	102	29.2	7.47	12.2	25.3	61.1	15.1	39.2	111							
Cc1ccc(C2OC(COCc3ccc(Cl)cc3)C(OCc3ccc(Cl)cc3)C2O)cc1 (stereo not drawn)			81.2	18.9	43.1			22.6	56.1		38.3	29.6							
O=C1OC2(CC1C1(O)C3CC4CC(C3)CC1C4)C1CC3CC(C1)CC2C3 (stereo not drawn)	> 100			> 100	> 100		84.5	> 100		> 100		> 100	> 100						
